Experimental findings from the METLIN SMRT retention time set (Domingo-Almenara et al. 2019) are described below.

Structures are written as SMILES.

A short description of the data set: gradient 5% acetonitrile 3 min, to 50% in 2 min, to 85% in 15 min, held 3 min, 100 µL/min. To be noted: column: Zorbax Extend-C18 2.1 x 50 mm; eluents: water / acetonitrile, 0.1% formic acid. Summed up:
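Retention time was recorded from adduct peaks, which were picked computationally and each inspected manually. Pure standards ran in mixtures of ~100 molecules on HPLC coupled to a quadrupole time-of-flight mass spectrometer, in positive and negative ionization mode, through a Zorbax Extend-C18 column (2.1 × 50 mm, 1.8 μm) at 100 μL/min. Eluents were water and acetonitrile, each with 0.1% formic acid.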
As to `CCN1CCCn2cc(S(=O)(=O)Nc3ccc(C)c(C)c3)cc2C1=O`, the RP-LC retention time was 778 s.
As to `COc1ccc(-c2nc(C3CC(=O)N(c4ccc(OC)c(OC)c4)C3)no2)cc1OC` (configuration not stated), the RP-LC retention time was determined as 787 s.
As for `COC(=O)c1ccc2c(=O)n(-c3ccc(C)c(F)c3)c(N3CCN(c4ccccn4)CC3)nc2c1`, the figure is 714 s.
In the case of `CCC1CCCCN1CCNC(=O)CCc1cc2cc(OC)ccc2[nH]c1=O` (configuration not stated) it was 593 s; in that of `Cc1ccsc1C(=O)NCC1Cn2cccc2C(=O)N1CC(C)C` (configuration not stated), 783 s; in that of `Cc1ccc(-c2noc(C3CC3)n2)cc1S(=O)(=O)N1CCC(C(=O)NC2CC2)CC1`, 836 s.
As for `COc1ccc(-c2c(C)noc2NC(C)=O)cc1S(=O)(=O)N1CCCc2ccccc21`, the figure is 856 s; as for `Cc1cc(F)ccc1NC(=O)C1CCN(S(=O)(=O)c2c(C)[nH]c(C)c2C(=O)N2CCCC2)CC1`, 691 s; as for `CCCn1cc(C2=CCN(S(=O)(=O)Cc3ccc(Cl)cc3)CC2)c2cccnc21`, 1100 s.
`COCc1nc2cccnc2n1C1CCN(C(=O)Nc2ccc(OC)cc2OC)CC1`: the RP-LC retention time amounted to 638 s.
As for `CCOc1ccc(S(=O)(=O)N2CCC(C(=O)NCCOC)CC2)cc1C`, the figure is 783 s; as for `Cc1ccc(NC(=O)Cn2cnc3c(-c4ccccc4)csc3c2=O)c(Cl)c1`, 965 s.
In the case of `CCc1noc(-c2ccc(-n3ncc(C(=O)NC4CC4)c3C)nc2)n1` it was 792 s; in that of `CCN1CCN(C(=O)c2cc3n(n2)CC(C)(C(=O)NC2CCCCC2)N(C)C3=O)CC1` (configuration not stated), 584 s.
Compound `O=C(c1ccncc1)N1CC(C(=O)N2CCSCC2)C2(CCCCC2)C1` (configuration not stated) yielded an RP-LC retention time of 620 s.
In the case of `CCOc1ccccc1NC(=O)N1CCC2(C1)C(=O)Nc1ccc(OC)cc12` (configuration not stated) it was 810 s.
As to `CCOC(=O)c1oc2ccc(S(=O)(=O)N3CCC(c4ccncc4)CC3)cc2c1C`, the RP-LC retention time is 730 s.
In the case of `CCC(=O)N1CCc2c(C(=O)N3CCN(c4cccc(OC)c4)CC3)cccc21` it was 819 s; in that of `CCN1C(=O)C2(CCN(C(=O)NCCC(C)C)CC2)c2ccccc21`, 854 s; in that of `COc1cccc(CNC(=O)C2CCCN(c3ccc(-c4nc(C)no4)cn3)C2)c1OC` (configuration not stated), 753 s.
`COc1ccc(CNC(=O)C2(C)Cn3nc(C)cc3C(=O)N2c2ccc(F)cc2)cc1` (configuration not stated) showed an RP-LC retention time of 764 s.
In the case of `Cc1ccc(-c2coc(-c3ccc(NC(=O)c4cccs4)cc3)n2)c(C)c1` it was 1270 s; in that of `O=C(C1CC1)N1CCc2sc(S(=O)(=O)NCc3cccc(F)c3)cc2C1`, 805 s.
On to `O=C1CCCN2N=C(SCc3ccc([N+](=O)[O-])cc3)SC2=N1`, for which the RP-LC retention time was found to be 779 s.
In the case of `CCOC(=O)C1CCN(C(=O)Cn2nc(C)c3sc(-c4ccccc4)nc3c2=O)CC1` it was 842 s.
As for `Cc1oc(-c2[nH]ncc2C(=O)N2CCCCC2)cc1S(=O)(=O)NCc1ccncc1`, the figure is 575 s; as for `CC(CNC(=O)CN1C(=O)C2CCCCN2c2ccc(S(=O)(=O)N(C)C)cc21)c1ccccc1` (configuration not stated), 943 s; as for `COc1ccc(-c2nnc(-c3ccc(OC)c(S(=O)(=O)N4CCCCCC4)c3)o2)cc1OC`, 979 s.
In the case of `O=C(Cc1ccc(NC(=O)C2COc3ccccc3O2)cc1)NCC(F)(F)F` (configuration not stated) it was 576 s.
For `O=C(CS(=O)Cc1cnn(-c2ccccc2)c1-n1cccc1)N1CCN(C2CCCCC2)CC1` (configuration not stated), the RP-LC retention time came to 643 s.
As for `O=C(NC1CC1)c1nnc(-c2ccc(S(=O)(=O)N3CCCCC3)cc2)o1`, the figure is 804 s; as for `Cc1ccc(C(=O)Nc2cccn3nc(C(C)C)nc23)cc1`, 950 s; as for `COC(=O)c1cccc(C(=O)Nc2cccc(C)c2C)n1`, 899 s.
In the case of `COc1cccc(Cn2c(=O)c3sccc3n(Cc3nc(-c4ccccc4OC)no3)c2=O)c1` it was 987 s; in that of `Cc1ccccc1-n1c(=O)c2sccc2n(Cc2nc(-c3cccc(Br)c3)no2)c1=O`, 1110 s.
As for `CC(C)C(=O)N1CCCC(c2nc(CCNC(=O)C3CCC3)cs2)C1` (configuration not stated), the figure is 694 s.
Take `Cc1ccc(-n2cc3c(N4CCCC(C(=O)NC(C)c5ccc(C)cc5C)C4)ncnc3n2)cc1` (configuration not stated): the RP-LC retention time amounted to 814 s.
As for `CC(C)NC(=O)NC1CCN(c2nc3ccccc3n(C)c2=O)CC1`, the figure is 562 s; as for `Cc1ccc(-c2cn3c(CC(=O)N4CCc5ccccc54)csc3n2)cc1C`, 901 s.
`CCN(CC)CCCC(C)Nc1nc(/C=C/c2cc(OC)c(OC)cc2Cl)nc2cc(Cl)ccc12` (configuration not stated): the RP-LC retention time is 595 s.
`Cc1ccc(S(=O)(=O)N2CCCC(Cn3c(C)nc4cccnc43)C2)c(C)c1` (configuration not stated) displayed an RP-LC retention time of 747 s.
As for `O=C1C(c2cccnc2)N(Cc2ccc3c(c2)OCO3)C(=O)CN1c1ccccc1` (configuration not stated), the figure is 636 s; as for `Cn1cc(C(CNC(=O)Nc2ccc3c(c2)OCO3)c2cccnc2)c2ccccc21` (configuration not stated), 684 s.
Consider `O=C(Cn1c(=O)c2cccn2c2ccc(F)cc21)N1CCN(C(=O)c2ccco2)CC1`, for which the RP-LC retention time stood at 706 s.
In the case of `CC1CCN(S(=O)(=O)c2ccc(-c3nnc(C(=O)NCCCc4ccccc4)o3)cc2)CC1` it was 1150 s.
In the case of `CCN1CCn2cc(S(=O)(=O)NCc3ccc(C)c(C)c3)cc2C1=O` it was 761 s; in that of `CCc1nc2cc(-c3noc(-c4nn(C)c5ccccc45)n3)ccc2o1`, 1130 s; in that of `O=S(=O)(CCCOc1ccc(F)cc1)NCc1ccccn1`, 645 s.
In the case of `Cc1cc(N2CCCCCC2)n2nc(CN3CCN(C(C)C)CC3)nc2n1` it was 555 s.
Compound `CCCc1noc(-c2cccnc2N2CCCN(Cc3ccc(C)cc3)CC2)n1` showed an RP-LC retention time of 749 s.
In the case of `O=S(=O)(c1ccc(F)c(Cl)c1)N1CCC(OCc2noc(C3CCCO3)n2)CC1` (configuration not stated) it was 973 s.
`CCCCC(=O)Nc1cnc(N2CCNCC2)c(C(=O)N2CCCC2)c1` came in with an RP-LC retention time of 595 s.
In the case of `Cc1cc(C)cc(N2CCC(NC(=O)NCc3cccc(F)c3)C2=O)c1` (configuration not stated) it was 851 s; in that of `CCCn1cc(CCNS(=O)(=O)Cc2cc(C)ccc2C)c2cccnc21`, 946 s.
In turn, `O=C(CC1Sc2ccc(C(F)(F)F)cc2NC1=O)Nc1cccc(Cl)c1Cl` (configuration not stated) showed an RP-LC retention time of 993 s.
In the case of `CN(C(=O)Cn1cncc(C(=O)NC2CCCC2)c1=O)c1ccccc1` it was 767 s.
As for `Clc1ccccc1-c1noc(-c2nc(-c3ccncc3)no2)n1`, the figure is 1130 s.
In the case of `Cc1csc(-c2cc(S(=O)(=O)NCc3ccc(C(C)C)cc3)cn2CC(=O)N2CCCC2)n1` it was 1030 s; in that of `O=C(c1ccc(/C=C/c2n[nH]c3ccccc23)cc1)N1CCNCC1`, 648 s.
On to `CCC(C)NC(=O)N1CC(Oc2ccccc2-c2nc(-c3ccccc3)no2)C1` (configuration not stated), for which the RP-LC retention time stood at 999 s.
In the case of `COc1ccc(CNC(=O)c2sc(-c3cn(C(C)C)c4ncccc34)nc2C)cc1` it was 1030 s.
In the case of `O=C(NC(c1ccccc1)c1nnc(N2CCOCC2)o1)c1ccc2c(c1)OCO2` (configuration not stated) it was 726 s; in that of `COCC(=O)Nc1ccc2nc(N3CCN(CC(=O)N4CCCCC4)CC3)cc(C(=O)O)c2c1`, 558 s.
As for `Cc1ccc(NS(=O)(=O)c2ccc3c(c2)CCCC(=O)N3)cc1C`, the figure is 756 s.
In the case of `COc1ccc(Nc2ncccc2S(N)(=O)=O)cc1`, the RP-LC retention time was found to be 712 s.
`O=C(Nc1ccccc1F)NC1CCN(C(=O)C2CC2)C1` (configuration not stated) showed an RP-LC retention time of 673 s.
In the case of `CC1Oc2ccccc2N(Cc2nc(-c3ccc(Cl)cc3)no2)C1=O` (configuration not stated) it was 1160 s; in that of `COc1ccc(NC(=O)N(C)CCc2noc(COc3ccc(F)cc3)n2)cc1OC`, 801 s.
Compound `O=C(c1ccc2ncnc(N3CCCC3)c2c1)N1CCCCC1` came in with an RP-LC retention time of 577 s.
In the case of `Cc1[nH]c(=O)nc(N/N=C/c2ccc(Cl)cc2)c1C(=O)Nc1ccc(Cl)cc1` it was 1020 s; in that of `Cc1cc(C)c(S(=O)(=O)N2CCCC(C(=O)NC3CC3)C2)c(C)c1` (configuration not stated), 842 s; in that of `CCn1c(=O)sc2cc(S(=O)(=O)N3CCC(C(=O)Nc4cc(C)ccc4OC)CC3)ccc21`, 978 s.
As for `Cc1nc(N2CCN(C(c3ccccc3)c3ccccc3)CC2)nc2c1C(=O)CC(c1cccs1)C2` (configuration not stated), the figure is 1150 s.
As for `COc1ccc(CNC(=O)CN2CCc3[nH]c4cc5c(cc4c(=O)c3C2)OCCO5)cc1OC`, the figure is 585 s; as for `COc1ccc(C2C(C(=O)N3CCCCCC3)c3cc(OC)c(OC)cc3C(=O)N2C)cc1OC` (configuration not stated), 748 s.
For the compound `Cc1ccc(C)c(CNC(=O)c2cccn2Cc2noc(C)n2)c1`, the RP-LC retention time worked out at 893 s.
Compound `CCC(C)(C)NS(=O)(=O)c1ccc(-c2nc(C(C)C)cs2)s1` returned an RP-LC retention time of 1240 s.
